Source: patent US20240124432A1, “HERBICIDAL COMPOUNDS” (SYNGENTA CROP PROTECTION AG, priority 2020, published 2024)

Columns and labels:
Assay type in all cases: in vivo
AMAPA [1] = assay: Pre-emergence biological efficacy; conditions: Amaranthus palmeri, 312 h, evaluated after 13 days, read-out: damage to plant (100=total damage to plant; 0=no damage to plant)
Procedure, shortened: (§1)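 Injury rating (0 = no damage, 100 = plant killed) taken 13 days after a single spray of compound at the chosen dose onto freshly sown pots held 1 day in the glasshouse beforehand.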

ECHCG [2] = assay: Pre-emergence biological efficacy; conditions: Echinochloa crus-galli, 312 h, evaluated after 13 days, read-out: damage to plant (100=total damage to plant; 0=no damage to plant)
Procedure, shortened: as §1

EPHHL [3] = assay: Pre-emergence biological efficacy; conditions: Euphorbia heterophylla, 312 h, evaluated after 13 days, read-out: damage to plant (100=total damage to plant; 0=no damage to plant)
Procedure, shortened: as §1

IPOHE [4] = assay: Pre-emergence biological efficacy; conditions: Ipomoea hederacea, 312 h, evaluated after 13 days, read-out: damage to plant (100=total damage to plant; 0=no damage to plant)
Procedure, shortened: as §1

LOLPE [5] = assay: Pre-emergence biological efficacy; conditions: Lolium perenne, 312 h, evaluated after 13 days, read-out: damage to plant (100=total damage to plant; 0=no damage to plant)
Procedure, shortened: as §1

SETFA [6] = assay: Pre-emergence biological efficacy; conditions: Setaria faberi, 312 h, evaluated after 13 days, read-out: damage to plant (100=total damage to plant; 0=no damage to plant)
Procedure, shortened: as §1

AMAPA [7] = assay: Post-emergence biological efficacy; conditions: Amaranthus palmeri, 312 h, evaluated after 13 days, read-out: damage to plant (100=total damage to plant; 0=no damage to plant)
Procedure, shortened: (§2)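 Plants grown 14 days in glasshouse, then sprayed post-emergence with compound formulated in IF50 and diluted in 0.2% Genapol XO80 to the desired dose. Damage scored after 13 days on a 0–100 scale (100 = total damage).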

CHEAL = assay: Post-emergence biological efficacy; conditions: Chenopodium album, 312 h, evaluated after 13 days, read-out: damage to plant (100=total damage to plant; 0=no damage to plant)
Procedure, shortened: as §2

DIGSA = assay: Post-emergence biological efficacy; conditions: Digitaria sanguinalis, 312 h, evaluated after 13 days, read-out: damage to plant (100=total damage to plant; 0=no damage to plant)
Procedure, shortened: as §2

ECHCG [8] = assay: Post-emergence biological efficacy; conditions: Echinochloa crus-galli, 312 h, evaluated after 13 days, read-out: damage to plant (100=total damage to plant; 0=no damage to plant)
Procedure, shortened: as §2

ELEIN = assay: Post-emergence biological efficacy; conditions: 312 h, evaluated after 13 days, read-out: damage to plant (100=total damage to plant; 0=no damage to plant)
Procedure, shortened: as §2

EPHHL [9] = assay: Post-emergence biological efficacy; conditions: Euphorbia heterophylla, 312 h, evaluated after 13 days, read-out: damage to plant (100=total damage to plant; 0=no damage to plant)
Procedure, shortened: as §2

IPOHE [10] = assay: Post-emergence biological efficacy; conditions: Ipomoea hederacea, 312 h, evaluated after 13 days, read-out: damage to plant (100=total damage to plant; 0=no damage to plant)
Procedure, shortened: as §2

LOLPE [11] = assay: Post-emergence biological efficacy; conditions: Lolium perenne, 312 h, evaluated after 13 days, read-out: damage to plant (100=total damage to plant; 0=no damage to plant)
Procedure, shortened: as §2

SETFA [12] = assay: Post-emergence biological efficacy; conditions: Setaria faberi, 312 h, evaluated after 13 days, read-out: damage to plant (100=total damage to plant; 0=no damage to plant)
Procedure, shortened: as §2

Row | Compound | pest or weed control at 250 g/ha (AMAPA [1]) | pest or weed control at 250 g/ha (ECHCG [2]) | pest or weed control at 250 g/ha (EPHHL [3]) | pest or weed control at 250 g/ha (IPOHE [4]) | pest or weed control at 250 g/ha (LOLPE [5]) | pest or weed control at 250 g/ha (SETFA [6]) | pest or weed control at 250 g/ha (AMAPA [7]) | pest or weed control at 250 g/ha (CHEAL) | pest or weed control at 250 g/ha (DIGSA) | pest or weed control at 250 g/ha (ECHCG [8]) | pest or weed control at 250 g/ha (ELEIN) | pest or weed control at 250 g/ha (EPHHL [9]) | pest or weed control at 250 g/ha (IPOHE [10]) | pest or weed control at 250 g/ha (LOLPE [11]) | pest or weed control at 250 g/ha (SETFA [12])
1 | CCOC(=O)C1(C)CC(c2cc(-c3cnc4ccccc4c3)c(F)cc2Cl)=NO1 (stereo not drawn) [Compound 1-439, Ethyl 3-[2-chloro-4-fluoro-5-(3-quinolyl)-phenyl]-5-methyl-4H-isoxazole-5-carboxylate] | 50% | 30% | 10% | 10% | 20% | 20% | 70% | 50% | 30% | 30% | 50% | 40% | 40% | 20% | 30%
2 | CCOC(=O)C1(C)CC(c2cc(-c3cnc4c(c3)OC(F)(F)O4)c(F)cc2Cl)=NO1 (stereo not drawn) [Compound 1-451, Ethyl 3-[2-chloro-5-(2,2-difluoro-[1,3]dioxolo[4,5-b]pyridin-6-yl)-4-fluoro-phenyl]-5-methyl-4H-isoxazole-5-carboxylate] | 90% | 40% | 80% | 50% | 40% | 40% | 100% | 100% | 100% | 100% | 100% | 100% | 100% | 100% | 100%
3 | CCOC(=O)C1(C)CC(c2cc(-c3ccc(C)nc3F)c(F)cc2Cl)=NO1 (stereo not drawn) [Compound 1-463, Ethyl 3-[2-chloro-4-fluoro-5-(2-fluoro-6-methyl-3-pyridyl)-phenyl]-5-methyl-4H-isoxazole-5-carboxylate] | 20% | 50% | 20% | 10% | 10% | 30% | 70% | 70% | 70% | 90% | 60% | 70% | 100% | 0% | 90%
4 | CCOC(=O)C1(C)CC(c2cc(-c3cc(F)cnc3Cl)c(F)cc2Cl)=NO1 (stereo not drawn) [Compound 1-475, Ethyl 3-[2-chloro-5-(2-chloro-5-fluoro-3-pyridyl)-4-fluoro-phenyl]-5-methyl-4H-isoxazole-5-carboxylate] | 0% | 0% | 40% | 20% | 0% | 0% | 100% | 100% | 50% | 80% | 30% | 70% | 100% | 10% | 80%
5 | CCOC(=O)C1(C)CC(c2cc(-c3ccncc3)c(F)cc2Cl)=NO1 (stereo not drawn) [Compound 1-487, Ethyl 3-[2-chloro-4-fluoro-5-(4-pyridyl)-phenyl]-5-methyl-4H-isoxazole-5-carboxylate] | 0% | 0% | 0% | 0% | 0% | 0% | 30% | 0% | 0% | 0% | 0% | 0% | 0% | 0% | 0%
